Measurements taken from patent publication US11805798B2, “Process for increasing the stability of a composition comprising polyunsaturated omega-3 fatty acids” (Evonik Operations GmbH, priority 2014, dated 2023).
“And” between values parts separate entries of the source, which are not always exact repeats. Equal entries are not always repeated.

Assays:
Type in all cases: physicochemical
[1] = Anisidine Value (AV), secondary oxidation products, Ph. Eur. 2.5.36; stability on storage
Protocol: An exemplary procedure for determining the Anisidine Value (AV) of a sample is performed as follows
The anisidine value is defined as 100 times the optical density measured in a 1 cm cell of a solution containing 1 g of the substance to be examined in 100 ml of a mixture of solvents and reagents according to the following method carry out the operations as rapidly as possible avoiding exposure to actinic light.
Test solution (a); Dissolve 0.500 g of the substance to be examined in trimethylpentane and dilute to 25.0 ml with the same solvent.
Test solution (b): To 5.0 ml of test solution (a) add 1.0 ml of a 2.5 g/t solution of p-anisidine in glacial acetic acid, shake and store protected from light.
Reference solution: To 5.0 ml of trimethylpentane add 1.0 ml of a 2.5 g/l solution of p-anisidine in glacial acetic acid, shake and store protected from light. Measure the absorbance of test solution (a) at the maximum at 350 nm using trimethylpentane as the compensation liquid. Measure the absorbance of test solution (b) at 350 nm exactly 10 min after its preparation, using the reference solution as the compensation liquid. Calculate the anisidine value (AV) from the expression. AV=(25*(1.2*A1−A2)/m • A1=absorbance of test solution (b) at 350 nm, • A2=absorbance of test solution (a) at 350 nm, • m=mass of the substance to be examined in test solution (a), in grams.
(§1) Primary oxidation products (hydroperoxides at double bonds) were quantified by determining the Peroxide Value (PV) according to Ph. Eur 2.5.5 (01/2008.20505). Secondary oxidation products (carbonyl compounds) were quantified by determining the Anisidine Value (AV) according to Ph, Eur. 2.5.36 (01/2008:20536).
(§2) About 50 g each of the liquid ethyl esters EPA-OEt and DHA-OEt used in experiments 1 and 2 as well as of the liquid fatty acids EPA and DHA obtained in experiments 1 and 2 were filled into 250 ml Schott Duran bottles with an inner diameter of about 60 mm (filling height about 20 mm). About 50 g each of the solid lysine-salts EPA-Lys and DHA-Lys obtained in experiments 3 and 4 were filled into 250 ml polyethylene wide-neck bottles (55 mm*55 mm*80 mm) (filling height about 60 mm-70 mm).
(§3) All of the bottles were placed together with opened lids in a drying oven with an opened ventilation valve at 50° C. and stored under these conditions for 26 days. Results of the analyses performed subsequently as well as the results obtained for the sodium-salts which were stored at room temperature (cf. experiments 5 and 6) are summarized in the following table (Table 1).

[2] = Peroxide Value (PV), primary oxidation products, Ph. Eur. 2.5.5; stability on storage
Protocol: An exemplary procedure for determining the Peroxide Value (PV) of a sample is performed as follows:
Reagents and solution: • 1. Acetic Acid—chloroform solution (7.2 ml Acetic Acid and 4.8 ml Chloroform). • 2. Saturated Potassium Iodide solution. Store in the dark. • 3. Sodium thiosulfate solution, 0.1N. Commercially available • 4. 1% Starch solution. Commercially available. • 5. Distilled or deionized water.
Conduct a blank determination of the reagents • 1. Weigh 2.00 (±0.02) g of sample into a 100 ml glass stoppered Erlenmeyer flask. Record weight to the nearest 0.01 g. • 2. By graduated cylinder, odd 12 ml of the acetic acid chloroform solution. • 3. Swirl the flask until the sample is completely dissolved (careful warming on a hot plate may be necessary). • 4. Using 1 ml Mohr pipette, add 0.2 ml of saturated potassium iodide solution • 5. Stopper the flask and swirl the contents of the flask for exactly one minute. • 6. Immediately add by graduated cylinder, 12 ml of either distilled or deionized water, stopper and stake vigorously to liberate the iodine from the chloroform layer. • 7. Fill the burette with 0.1 N sodium thiosulfate. • 8. If the starting color of the solution is deep red orange, titrate slowly with mixing until the color lightens. If the solution is initially a light amber color, go to step 9. • 9. Using a dispensing device: add 1 ml of starch solution as indicator. • 10. Titrate until the blue gray color disappears in the aqueous (upper layer). • 11. Accurately record the mis of titrant used to two decimal places.
Calculation: • S=titration of sample • B=titration of blank • Peroxide value=(S−B)*N thiosulfate*1000/weight of sample
as §1, §2, §3

[3] = Oligomer content by gel-chromatography (GPC), RI-detector; stability on storage
Protocol: Oligomeric PUFA constituents as well as their derivatives (collectively referred to as oligomer content) were quantified by gel-chromatographic means (GPC, styroldivinylbenzene-phase with tetrahydrofuran containing trifluoroacetic acid used as eluent). A refractive index (RI) detector was used for detection. Due to the fact that specific response factors of the constituents of the samples wore unknown, proportions were calculated based upon fractional proportions of the total area of chromatograms.
as §2, §3

[4] = Appearance after storage at room temperature; settings: after storage for 3 months at room temperature; initially faintly beige powder
Protocol: The homogenous solution obtained was spray dried with a Büchi B190 laboratory-spray drier with an inlet temperature of 140° C. and an outlet temperature of about 80° C. 28.6 g of a faintly beige powder were obtained.
The homogenous solution obtained was spray dried with a Büchi B190 laboratory-spray drier writ an inlet temperature of 140° C. and an outlet temperature of about 80° C. 27.5 g of a faintly beige powder were obtained. […] Oligomer content was determined as 3.4 area-% (gel-chromatography. RI-detector).

[5] = after 3 months at room temperature
[6] = t = 26 days, open bottles exposed to air, drying oven at 50° C.

Compound	Anisidine Value (AV) [1, 5]	Peroxide Value (PV) [2, 5]	Oligomer content [3, 5]	Appearance after storage [4]	Anisidine Value (AV) ([1]; t = 0, before storage)	Anisidine Value (AV) [1, 6]	Peroxide Value (PV) ([2]; t = 0, before storage)	Peroxide Value (PV) [2, 6]	Oligomer content ([3]; t = 0, before storage)	Oligomer content [3, 6]
Docosahexaenoic Acid-Sodium Salt [DHA-Na]	77.9 A/g and 77.9 ** A/g	6.9 mmol/kg and 6.9 ** mmol/kg	3.4 area-% and 3.4 ** area-%	grey-coloured appearance						
CC/C=C\C/C=C\C/C=C\C/C=C\C/C=C\C/C=C\CCC(=O)OCC [DHA-OEt, docosahexaenoic acid ethyl ester]					16.0 A/g	1732 A/g	26.1 mmol/kg	282.0 mmol/kg	0.4 area-%	32.6 area-%
CC/C=C\C/C=C\C/C=C\C/C=C\C/C=C\CCCC(=O)O [EPA-OH, all-cis-5,8,11,14,17-eicosapentaenoic acid]					3.1 A/g	424 A/g	8.6 mmol/kg	14.7 mmol/kg		20.6 area-%
Eicosapentaenoic Acid-L-Lysine [EPA-Lys]					2.1 A/g	<1.0 A/g	1.3 mmol/kg	<1.0 mmol/kg		0.6 area-%
Eicosapentaenoic Acid-Sodium Salt [EPA-Na]	41.1 A/g and 41.1 ** A/g	5.0 mmol/kg and 5.0 ** mmol/kg	2.4 area-% and 2.4 ** area-%	grey-coloured appearance						
Docosahexaenoic Acid-L-Lysine Salt [DHA-Lys]					3.1 A/g	<1.0 A/g	1.7 mmol/kg	<1.0 mmol/kg		0.9 area-%
